Literature values as cited in patent publication US20060246530A1, “Method and reagent for the specifically identifying and quantifying one or more proteins in a sample” (priority 2002, published 2006).

How the values were obtained:
[1] = stability constant
[2] = stability constant, Zn
[3] = selectivity factor
mice = conditions: Intravenous LD50-rate in mice
[4] = stability constant, Gd
[5] = stability constant, Cu

| Structure (SMILES) | Log KCal [1] | Log KZnL [2] | Log Ksel [3] | LD50 (mice) [mmol/kg] | Log KGdL [4] | Log KCuL [5] |
| --- | --- | --- | --- | --- | --- | --- |
| O=C(O)CN1CCN(CC(=O)O)CCN(CC(=O)O)CCN(CC(=O)O)CC1 [DOTA, 1,4,7,10-tetraazacyclododecane-1,4,7,10-tetraacetic acid] | 17.23 | 21.05 | 8.3 | 11 | 24.6 | 22.63 |
| O=C(O)CN1CCNCCN(CC(=O)O)CCN(CC(=O)O)CC1 [DO3A] | 11.74 | 19.26 | 4.13 | 7 to 9 | 21.0 | 22.87 |
| O=C(O)CN(CCN(CC(=O)O)CC(=O)O)CC(=O)O [EDTA] | 10.61 | 16.5 | 4.23 | – | 17.7 | 18.78 |
| CC(O)CN1CCN(CC(=O)O)CCN(CC(=O)O)CCN(CC(=O)O)CC1 (centres unmarked) [HP-DO3A] | 14.83 | 19.37 | 6.95 | 12 | 23.8 | 22.84 |
| O=C(O)CN(CCN(CC(=O)O)CC(=O)O)CCN(CC(=O)O)CC(=O)O [DTPA] | 10.75 | 18.29 | 7.04 | 5.6 | 22.46 | 21.38 |
